From patent US12441768B2, “Compositions and methods for treating endometriosis” (EndoMet Biosciences, Inc., priority 2018, dated 2025) come the findings set out here.

Where a SMILES comes first, the peptide text is derived from it.

For series [1] the following is noted: % Viability non-Wnt responsive cells.
A further series addresses T1, β-catenin (Homo sapiens, UniProt P35222).
T1 sequence (P35222 1-781): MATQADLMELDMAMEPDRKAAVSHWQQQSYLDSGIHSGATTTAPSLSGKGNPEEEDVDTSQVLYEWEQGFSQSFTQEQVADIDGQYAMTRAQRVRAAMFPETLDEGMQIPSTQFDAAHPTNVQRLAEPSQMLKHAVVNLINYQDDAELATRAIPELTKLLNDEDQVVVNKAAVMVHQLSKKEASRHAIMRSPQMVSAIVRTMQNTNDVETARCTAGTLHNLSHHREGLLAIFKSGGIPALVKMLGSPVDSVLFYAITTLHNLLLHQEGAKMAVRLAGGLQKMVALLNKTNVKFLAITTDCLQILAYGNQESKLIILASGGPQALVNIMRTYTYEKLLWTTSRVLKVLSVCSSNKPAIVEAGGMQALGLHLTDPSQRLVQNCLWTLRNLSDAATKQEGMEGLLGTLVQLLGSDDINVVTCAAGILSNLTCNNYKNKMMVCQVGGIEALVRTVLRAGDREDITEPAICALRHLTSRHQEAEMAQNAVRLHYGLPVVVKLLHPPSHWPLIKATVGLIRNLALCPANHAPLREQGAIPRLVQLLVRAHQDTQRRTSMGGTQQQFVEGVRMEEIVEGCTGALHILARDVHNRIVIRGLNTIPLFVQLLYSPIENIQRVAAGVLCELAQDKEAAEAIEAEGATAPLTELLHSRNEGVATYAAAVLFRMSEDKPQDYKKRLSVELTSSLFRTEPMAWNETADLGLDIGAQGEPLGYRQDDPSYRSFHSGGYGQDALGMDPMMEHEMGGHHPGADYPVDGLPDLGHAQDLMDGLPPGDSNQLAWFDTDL
Nature of the series: KD50 measurement using competitive fluorescence polarization (FP) with labelled TCF4. The note with it: fluorescence polarization, β-catenin; for Kd: read-out: β-Cat FP KD. The class given is binding. In a few lines:
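5 nM labelled TCF4 was combined with 100 nM β-catenin at room temperature, then inhibitor was titrated in serial dilutions from 10 nM to 30 uM. Polarization was read at excitation 470 nm, emission 520 nm; displacement lowers the signal. Three independent experiments.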

The target in series [2] is Wnt-responsive promoter (TCF/LEF). Nature of the series: Wnt-dependent luciferase reporter assay. In kind it is cell-based, murine. In a few lines:
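EC50 (uM) derived from inhibition of luminescence in Wnt3a-stimulated murine 3T3 cells expressing luciferase under a TCF/LEF promoter, with peptides added across a concentration range and vehicle as control.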

For the compound `CC[C@H](C)[C@H](NC(=O)[C@H](CC(C)C)NC(=O)[C@@H](NC(=O)[C@H](Cc1c[nH]c2ccccc12)NC(=O)[C@H](CCSC)NC(=O)[C@@H](N)CCCNC(=N)N)[C@@H](C)CC)C(=O)N[C@@H](CS)C(=O)N[C@@H](Cc1ccccc1)C(=O)N[C@@H](Cc1c[nH]c2ccccc12)C(=O)NCC(=O)O` [compound 115] (H-RMWILICFWG-OH), the viability in series [1] is 116%. At β-catenin, the “β-Cat FP Hill slope” value is 0.7 and the Kd was 1 to 10 µM. The compound further showed an EC50 in series [2] of 15 to 22.5 µM.
Consider `CC[C@H](C)[C@H](NC(=O)[C@H](CC(C)C)NC(=O)[C@@H](NC(=O)[C@H](Cc1c[nH]c2ccccc12)NC(=O)[C@@H](N)CCSC)[C@@H](C)CC)C(=O)N[C@@H](CS)C(=O)N[C@@H](Cc1ccccc1)C(=O)N[C@@H](Cc1c[nH]c2ccccc12)C(=O)NCC(=O)O` [compound 116] (H-MWILICFWG-OH), for which, in series [1], the viability was determined as 123%. Besides, at β-catenin, the “β-Cat FP Hill slope” value is recorded as 0.72 and the equilibrium dissociation constant (Kd) fell in the range of 0.4 to 1 µM. In addition, the EC50 in series [2] is less than 7.5 µM.
As for `CC[C@H](C)[C@H](NC(=O)[C@H](CC(C)C)NC(=O)[C@@H](NC(=O)[C@H](Cc1c[nH]c2ccccc12)NC(=O)[C@@H](N)CCCCN)[C@@H](C)CC)C(=O)N[C@@H](CS)C(=O)N[C@@H](Cc1ccccc1)C(=O)N[C@@H](Cc1c[nH]c2ccccc12)C(=O)NCC(=O)O` [compound 117] (H-KWILICFWG-OH), the viability in series [1] was 138%. Moreover, on β-catenin, the Kd was more than 30 µM. In series [2], this compound came in with a half-maximal effective concentration (EC50) of 15 to 22.5 µM.
Consider `CC[C@H](C)[C@H](NC(=O)[C@H](CC(C)C)NC(=O)[C@@H](NC(=O)[C@H](Cc1c[nH]c2ccccc12)NC(=O)[C@@H](N)Cc1c[nH]cn1)[C@@H](C)CC)C(=O)N[C@@H](CS)C(=O)N[C@@H](Cc1ccccc1)C(=O)N[C@@H](Cc1c[nH]c2ccccc12)C(=O)NCC(=O)O` [compound 118] (H-HWILICFWG-OH), for which the viability in series [1] was 99.9%. For the same compound, the Kd at β-catenin is more than 30 µM. Besides, the EC50 in series [2] was less than 7.5 µM.
With `CC[C@H](C)[C@H](NC(=O)[C@H](CC(C)C)NC(=O)[C@@H](NC(=O)[C@H](Cc1c[nH]c2ccccc12)NC(=O)[C@@H](N)CCCNC(=N)N)[C@@H](C)CC)C(=O)N[C@@H](CS)C(=O)N[C@@H](Cc1ccccc1)C(=O)N[C@@H](Cc1c[nH]c2ccccc12)C(=O)NCC(=O)O` [compound 119] (H-RWILICFWG-OH), the viability in series [1] came to 143%. Further, on β-catenin, the “β-Cat FP Hill slope” value came to 0.7 and the Kd was in the range of 1 to 10 µM. The EC50 in series [2] is 7.5 to 15 µM.
Regarding `CC[C@H](C)[C@@H]1NC(=O)[C@H](CC(C)C)NC(=O)[C@H]([C@@H](C)CC)NC(=O)[C@H](Cc2c[nH]c3ccccc23)NC(=O)[C@@H](N)CCCCNC(=O)C[C@@H](C(=O)O)NC(=O)[C@H](Cc2c[nH]c3ccccc23)NC(=O)[C@H](Cc2ccccc2)NC(=O)[C@H](CS)NC1=O` [compound 120] (HELM PEPTIDE1{K.W.I.L.I.C.F.W.D}$PEPTIDE1,PEPTIDE1,1:R3-9:R3$$$V2.0), in series [1], the viability was determined as 123%. Further, at β-catenin, the Kd is more than 30 µM. In series [2], this compound came in with an EC50 of less than 7.5 µM.
With `CC[C@H](C)[C@H](NC(=O)[C@H](Cc1c[nH]c2ccccc12)NC(=O)[C@@H](N)CCSC)C(=O)N[C@@H](CC(C)C)C(=O)N[C@H](C(=O)N[C@@H](CS)C(=O)NC(C)(Cc1ccccc1)C(=O)N[C@@H](Cc1c[nH]c2ccccc12)C(=O)NCC(=O)O)[C@@H](C)CC` (stereo partly drawn) [compound 121] (HELM PEPTIDE1{M.W.I.L.I.C.[CC(Cc1ccccc1)(N[*:1])C(=O)[*:2]].W.G}$$$$V2.0), the viability in series [1] is 150%. Moreover, on β-catenin, the “β-Cat FP Hill slope” value was 0.74 and the Kd is less than 0.4 µM. The EC50 in series [2] was less than 7.5 µM.
Turning to `CC[C@H](C)[C@H](NC(=O)[C@H](CC(C)C)NC(=O)[C@@H](NC(=O)[C@H](Cc1c[nH]c2ccccc12)NC(=O)[C@H](CCSC)NC(=O)[C@@H](N)CCCCN)[C@@H](C)CC)C(=O)N[C@@H](CO)C(=O)N[C@@H](Cc1ccccc1)C(=O)N[C@@H](Cc1c[nH]c2ccccc12)C(=O)NCC(=O)O` [compound 122] (H-KMWILISFWG-OH), the viability in series [1] was determined as 113%. At β-catenin, the “β-Cat FP Hill slope” value came to 1.55 and the Kd is less than 0.4 µM. In series [2], this compound yielded an EC50 of 22.5 to 30 µM.
Consider `CC[C@H](C)[C@H](NC(=O)[C@H](CC(C)C)NC(=O)[C@@H](NC(=O)[C@H](Cc1c[nH]c2ccccc12)NC(=O)[C@H](CCSC)NC(=O)[C@@H](N)Cc1c[nH]cn1)[C@@H](C)CC)C(=O)N[C@@H](CO)C(=O)N[C@@H](Cc1ccccc1)C(=O)N[C@@H](Cc1c[nH]c2ccccc12)C(=O)NCC(=O)O` [compound 123] (H-HMWILISFWG-OH), for which the viability in series [1] was 107%. On β-catenin, the “β-Cat FP Hill slope” value came to 1.07 and the Kd was less than 0.4 µM. The EC50 in series [2] is less than 7.5 µM.
Consider `CC[C@H](C)[C@H](NC(=O)[C@H](CC(C)C)NC(=O)[C@@H](NC(=O)[C@H](Cc1c[nH]c2ccccc12)NC(=O)[C@H](CCSC)NC(=O)[C@@H](N)CCCNC(=N)N)[C@@H](C)CC)C(=O)N[C@@H](CO)C(=O)N[C@@H](Cc1ccccc1)C(=O)N[C@@H](Cc1c[nH]c2ccccc12)C(=O)NCC(=O)O` [compound 124] (H-RMWILISFWG-OH), for which the viability in series [1] was 102%. On β-catenin, the Kd was more than 30 µM. For the same compound, the 50% effective concentration (EC50) in series [2] is 7.5 to 15 µM.
For the compound `CC[C@H](C)[C@H](NC(=O)[C@H](CC(C)C)NC(=O)[C@@H](NC(=O)[C@H](Cc1c[nH]c2ccccc12)NC(=O)[C@@H](N)CCCCN)[C@@H](C)CC)C(=O)N[C@@H](CO)C(=O)N[C@@H](Cc1ccccc1)C(=O)N[C@@H](Cc1c[nH]c2ccccc12)C(=O)NCC(=O)O` [compound 125] (H-KWILISFWG-OH), in series [1], the viability came to 113%. In addition, on β-catenin, the “β-Cat FP Hill slope” value was determined as 0.7 and the Kd lay in the range of 0.4 to 1 µM. The EC50 in series [2] was 22.5 to 30 µM.
In the case of `CC[C@H](C)[C@H](NC(=O)[C@H](CC(C)C)NC(=O)[C@@H](NC(=O)[C@H](Cc1c[nH]c2ccccc12)NC(=O)[C@@H](N)Cc1c[nH]cn1)[C@@H](C)CC)C(=O)N[C@@H](CO)C(=O)N[C@@H](Cc1ccccc1)C(=O)N[C@@H](Cc1c[nH]c2ccccc12)C(=O)NCC(=O)O` [compound 126] (H-HWILISFWG-OH), the viability in series [1] came to 111%. Also, at β-catenin, the “β-Cat FP Hill slope” value amounted to 0.99 and the Kd was less than 0.4 µM. This compound also displayed an EC50 in series [2] of less than 7.5 µM.
On to `CC[C@H](C)[C@H](NC(=O)[C@H](CC(C)C)NC(=O)[C@@H](NC(=O)[C@H](Cc1c[nH]c2ccccc12)NC(=O)[C@@H](N)Cc1c[nH]c2ccccc12)[C@@H](C)CC)C(=O)N[C@@H](CO)C(=O)N[C@@H](Cc1ccccc1)C(=O)N[C@@H](Cc1c[nH]c2ccccc12)C(=O)NCC(=O)O` [compound 127] (H-WWILISFWG-OH), for which, in series [1], the viability is 120%. Besides, on β-catenin, the “β-Cat FP Hill slope” value was 1 and the Kd is 0.4 to 1 µM. The concentration giving a half-maximal response (EC50) in series [2] is 7.5 to 15 µM.
For the compound `CC[C@H](C)[C@H](NC(=O)[C@H](Cc1c[nH]c2ccccc12)NC(=O)[C@@H](N)CCSC)C(=O)N[C@@H](CC(C)C)C(=O)N[C@H](C(=O)N[C@@H](CO)C(=O)NC(C)(Cc1ccccc1)C(=O)N[C@@H](Cc1c[nH]c2ccccc12)C(=O)NCC(=O)O)[C@@H](C)CC` (stereo partly drawn) [compound 128] (HELM PEPTIDE1{M.W.I.L.I.S.[CC(Cc1ccccc1)(N[*:1])C(=O)[*:2]].W.G}$$$$V2.0), the viability in series [1] was determined as 132%. Besides, at β-catenin, the “β-Cat FP Hill slope” value came to 2.15 and the Kd lay in the range of 0.4 to 1 µM. In series [2], this compound returned an EC50 of 7.5 to 15 µM.
As for `CC[C@H](C)[C@H](NC(=O)[C@H](CC(C)C)NC(=O)[C@@H](NC(=O)[C@H](Cc1c[nH]c2ccccc12)NC(=O)[C@@H](N)CCSC)[C@@H](C)CC)C(=O)N[C@@H](CO)C(=O)N[C@@H](CO)C(=O)N[C@@H](Cc1c[nH]c2ccccc12)C(=O)NCC(=O)O` [compound 129] (H-MWILISSWG-OH), the viability in series [1] was 134%. Also, at β-catenin, the “β-Cat FP Hill slope” value worked out at 0.87 and the Kd was in the range of 0.4 to 1 µM. The same compound had an EC50 in series [2] of less than 7.5 µM.
On to `CC[C@H](C)[C@H](NC(=O)[C@H](Cc1c[nH]c2ccccc12)NC(=O)[C@@H](N)CCSC)C(=O)NC(C)(CC(C)C)C(=O)N[C@H](C(=O)N[C@@H](CS)C(=O)N[C@@H](Cc1ccccc1)C(=O)N[C@@H](Cc1c[nH]c2ccccc12)C(=O)NCC(=O)O)[C@@H](C)CC` (stereo partly drawn) [compound 130] (HELM PEPTIDE1{M.W.I.[CC(C)CC(C)(N[*:1])C(=O)[*:2]].I.C.F.W.G}$$$$V2.0), for which the viability in series [1] is 98.3%. At β-catenin, the “β-Cat FP Hill slope” value stood at 0.72 and the Kd lay in the range of 1 to 10 µM. This compound also yielded an EC50 in series [2] of 22.5 to 30 µM.

As a reminder, the viability is a read-out of living cells in per cent, often relative to untreated cells. The Kd is the concentration at which binding is half-saturated. A word on the EC50: it is the concentration at which the effect is half-maximal.
